This note sets out measurements from ChEMBL document CHEMBL3045516, “Field study of the relative susceptibility of eleven potato (Solanum tuberosum L.) varieties and the efficacy of two fungicides against Rhizoctonia solani attack” (2010).

SMILES strings stand for the structures.

Format in all cases: functional
In test [1] the test system is Rhizoctonia solani. Kind of test: Fungicidal activity against Rhizoctonia solani assessed as level-2 black scurf infected potato Nicola progeny tubers using 25% active ingredient containing compound treated potato seeds and in-furrow compound application under field trial conditions (reference value: 17.9%).
The subject of test [2] is Rhizoctonia solani. Kind of test: Fungicidal activity against Rhizoctonia solani assessed as level-3 black scurf infected potato Nicola progeny tubers using 25% active ingredient containing compound treated potato seeds and in-furrow compound application under field trial conditions (reference value: 22.4%).
The test system of test [3] is Rhizoctonia solani. Kind of test: Fungicidal activity against Rhizoctonia solani assessed as level-3 black scurf infected potato Nicola progeny tubers using 25% active ingredient containing compound treated potato seeds under field trial conditions (reference value: 22.4%).
The test system of test [4] is Rhizoctonia solani. Kind of test: Fungicidal activity against Rhizoctonia solani assessed as level-4 black scurf infected potato Nicola progeny tubers using 25% active ingredient containing compound treated potato seeds under field trial conditions (reference value: 59.7%).
Test [5] has as its system Rhizoctonia solani. Kind of test: Fungicidal activity against Rhizoctonia solani assessed as level-1 black scurf infected potato Nicola progeny tubers using 25% active ingredient containing compound treated potato seeds under field trial conditions (reference value: 0.0%).
The test system of test [6] is Rhizoctonia solani. Kind of test: Fungicidal activity against Rhizoctonia solani assessed as level-2 black scurf infected potato Nicola progeny tubers using 25% active ingredient containing compound treated potato seeds under field trial conditions (reference value: 17.9%).
The test system of test [7] is Rhizoctonia solani. Kind of test: Fungicidal activity against Rhizoctonia solani assessed as level-4 black scurf infected potato Nicola progeny tubers using in-furrow application of 25% active ingredient containing compound under field trial conditions (reference value: 59.7%).
The test system of test [8] is Rhizoctonia solani. Kind of test: Fungicidal activity against Rhizoctonia solani assessed as level-1 black scurf infected potato Nicola progeny tubers using 25% active ingredient containing compound treated potato seeds and in-furrow compound application under field trial conditions (reference value: 0.0%).
Test [9] concerns Rhizoctonia solani. The experiment in a line: Fungicidal activity against Rhizoctonia solani assessed as level-3 black scurf infected potato Nicola progeny tubers using in-furrow application of 25% active ingredient containing compound under field trial conditions (reference value: 22.4%).
Test [10] concerns Rhizoctonia solani. Kind of test: Fungicidal activity against Rhizoctonia solani assessed as level-2 black scurf infected potato Nicola progeny tubers using in-furrow application of 25% active ingredient containing compound under field trial conditions (reference value: 17.9%).
The test system of test [11] is Rhizoctonia solani. The experiment in a line: Fungicidal activity against Rhizoctonia solani assessed as level-1 black scurf infected potato Nicola progeny tubers using in-furrow application of 25% active ingredient containing compound under field trial conditions (reference value: 0.0%).
The test system of test [12] is Rhizoctonia solani. Kind of test: Fungicidal activity against Rhizoctonia solani assessed as level-4 black scurf infected potato Nicola progeny tubers using 25% active ingredient containing compound treated potato seeds and in-furrow compound application under field trial conditions (reference value: 59.7%).

For `CO/C=C(\C(=O)OC)c1ccccc1Oc1cc(Oc2ccccc2C#N)ncn1` [Azoxystrobin], the Activity with Rhizoctonia solani [1] came to 83.3%; in the test with Rhizoctonia solani [2] it was 0.01%; in the test on Rhizoctonia solani [3], 0.01%; in the test with Rhizoctonia solani [4], 10%; with Rhizoctonia solani [5], 0.01%; in the test with Rhizoctonia solani [6], 90%. Also, the Activity is 0.01% with Rhizoctonia solani [7]; 16.7% in the test on Rhizoctonia solani [8]; 69% in the test on Rhizoctonia solani [9]; 31% with Rhizoctonia solani [10]; 0.01% with Rhizoctonia solani [11]; 0.01% in the test on Rhizoctonia solani [12].
Take `O=C(Nc1ccccc1)N(Cc1ccc(Cl)cc1)C1CCCC1` [PENCYCURON]: the Activity with Rhizoctonia solani [3] worked out at 19.7%; in the test on Rhizoctonia solani [4], 1.4%; in the test with Rhizoctonia solani [5], 8.1%; in the test on Rhizoctonia solani [6], 70.8%.
